Measurements as given in patent US11980645B2, “Bile acids and use in disease treatment” (The Regents of the University of California, priority 2019, dated 2024).

Experiments:
[1] = LC-MS/MS screen of murine portal and peripheral blood for conjugated bile acids
Excerpt: Portal and peripheral blood was collected from additional SPF (n=4) and GF (n=6) mice and screened for the presence of conjugated bile acids.
Bile Acids in Murine Portal and Peripheral Blood. An additional 4 SPF and 6 GF female mice of the same strain analyzed for the initial study on the microbial metabolome were raised for analysis of blood. Portal blood and peripheral blood were sampled as described in the methods section and analyzed with the same LC-MS/MS protocols as the original animals.

[2] = system: human fecal batch culture; test: Incubation with actively growing human fecal batch culture (metabolism by microbiota); assay type: in vitro ADME; details: 10 μM bile acid, 24 h
Excerpt: FIGS. […]. Distribution and metabolism of novel conjugated bile acids. FIG. 9a) Molecular network of SPF duodenum MS/MS data and synthesized amino acid conjugated bile acids. LC-MS/MS data from synthetic standards was networked with murine samples and spectral matching through molecular networking is indicated by node greyscale. Mirror plots showing the alignment between the murine and standards are shown. Nodes shaped as arrowheads had hits in the GNPS libraries and node size is scaled to the spectral count. Tauro=Taurocholic acid. These experiments were repeated twice. FIG. 9b) 3D-molecular cartography of the mean abundance of the newly discovered conjugates mapped onto a 3D-rendered model of the murine GI tract as a heatmap according to the greyscale. Organs are labeled as described in FIG. 1. FIG. 9c) Molecular network of GF and SPF portal and peripheral blood conjugated bile acids. Nodes are colored by source as either GF and SPF or portal/peripheral blood. Arrowhead nodes represent known compounds in the GNPS spectral database, circular nodes represent unknowns. The annotations are through spectral matches against reference libraries (level 2 or 3^3). FIG. 9d) Mean area under curve abundance and standard deviations of bile acids of interest during incubation with an actively growing batch human fecal culture for 24 h (n=3). FIG. 9e) Molecular network of novel conjugated bile acids after incubation in a human fecal batch culture experiment. Each node represents a unique MS/MS spectrum and arrowhead shaped nodes indicate known spectra in the GNPS database. The nodes are greyscale by their retention time according to the legend and the mass shift between nodes are mapped onto the edge representing the cosine connection between related spectra. The H2 mass shift representing oxidation of the novel conjugates is shown. FIG. 9f) Mean ion intensity and standard deviations of the dehydrogenated forms of Phe-chol, Tyr-chol and Leu-chol through the 24 h batch fecal culture incubation (n=3).
Fecal Culture Bioreactor Inoculation. A 4 g stool sample was resuspended in 40 mL modified yeast casitone fatty acids media (mYCFA, DMSZ recipe) with 0.25% Antifoam B Silicon Emulsion (Baker) in a vinyl anaerobic chamber (Coy). The resuspension was centrifuged at 500× g for 5 minutes to pellet solids. The supernatant was decanted through a sterile […] filter. The filtrate was centrifuged at 4450× g for 10 minutes to pellet cells. The supernatant was discarded, and the pellet was resuspended in 40 mL mYCFA. The resuspension was drawn into a 60 mL syringe and injected into a 500 mL vessel of an Infors Multifors 2 bioreactor. The chemostat process parameters was modified from a previous process developed in^26. The chemostat volume parameters were; 400 mL culture volume, 24-hour retention rate, 50 mL/min nitrogen, stirrer at 250 rpm, and 37° C. temperature. […] 15 μL stocks were added to 12 mL mYCFA. After 11 days of continuous culturing, 24 mL bioreactor culture was withdrawn and transferred to the anaerobic chamber. 3 mL culture was added to the 12 mL mYCFA aliquots with the bile acids, for a total volume of 15 mL and final concentration of 10 μM bile acid. The cultures were vortexed and split into three 5 mL aliquots. At time 0 (blanks for each bile acid), 1, 3, 6, 12 and 24 hours, 0.1 mL aliquots were removed from the samples for metabolomics and 16S rRNA gene sequencing. […]

[3] = system: FXR effector genes Fgf15, Shp, Cyp7a1, Cyp8b1; test: Bile acid gavage of mice, RT-qPCR of downstream FXR effector genes in ileum and liver; details: for Fgf15 expression in the intestine, increase / Shp expression in the intestine, increase: oral gavage 500 mg/kg in corn oil
Procedure: The gene expression of Fgf15 and Shp in the ileum and Shp, Cyp8b1 and Cyp7a1 in the liver of mice gavaged with bile acids of interest were analyzed using quantitative reverse transcriptase-PCR analysis. The expression levels were normalized to the cellular housekeeping gene ribosomal phosphoprotein PO (36B4).
Bile acid Gavage of Mice. Eight-week-old Male C57BL/6J mice (Jackson Laboratory) were acclimated for 14 days and housed in groups of two throughout the duration of the experiment to mitigate cage effects. Mice were then dosed 2 times (24 hour) or 4 times (72 hour) (t=0 hr, t=24 hr, t=48 hr, t=72 hr) by oral gavage with either a mock control of corn oil without bile acids, or corn oil infused Tyr-chol (500 mg/kg body weight), Leu-chol (500 mg/kg body weight), cholic acid (500 mg/kg body weight) or the control FXR agonist GW4064 (10 mg/kg body weight). Starting 3 hours after the last gavage (t=75 hr, 72 hour treatment or t=25, 24 hour treatment), mice were euthanized by CO2 asphyxiation and samples were collected within a 6 hour period and snap frozen in a liquid nitrogen bath and stored at −80° C. prior to analysis. […] Ileum and liver samples were used for qPCR.
RT-qPCR Analysis of Downstream FXR Gene Expression. Mouse liver and ileum segments were directly homogenized in TRIzol and total RNA isolated. cDNA was synthesized from 1 μg of DNase-treated total RNA using Bio-Rad iScript Reverse Transcription supermix (#1708841) and mRNA levels of Fgf15, Shp, Cyp7b1 and Cyp7a1 were quantified by quantitative PCR with Advanced Universal SyBr Green Supermix (Bio-Rad, cat #725271). All samples were run in technical triplicates and relative mRNA levels were calculated by using the standard curve methodology and normalized to 36B4.

human FXR = molecular target: T1, human FXR (Homo sapiens, UniProt Q96RI1); test: FXR luciferase reporter assay in HEK-293 cells; details: for human FXR agonism: HEK-293 luciferase reporter
T1 sequence (Q96RI1 1-486): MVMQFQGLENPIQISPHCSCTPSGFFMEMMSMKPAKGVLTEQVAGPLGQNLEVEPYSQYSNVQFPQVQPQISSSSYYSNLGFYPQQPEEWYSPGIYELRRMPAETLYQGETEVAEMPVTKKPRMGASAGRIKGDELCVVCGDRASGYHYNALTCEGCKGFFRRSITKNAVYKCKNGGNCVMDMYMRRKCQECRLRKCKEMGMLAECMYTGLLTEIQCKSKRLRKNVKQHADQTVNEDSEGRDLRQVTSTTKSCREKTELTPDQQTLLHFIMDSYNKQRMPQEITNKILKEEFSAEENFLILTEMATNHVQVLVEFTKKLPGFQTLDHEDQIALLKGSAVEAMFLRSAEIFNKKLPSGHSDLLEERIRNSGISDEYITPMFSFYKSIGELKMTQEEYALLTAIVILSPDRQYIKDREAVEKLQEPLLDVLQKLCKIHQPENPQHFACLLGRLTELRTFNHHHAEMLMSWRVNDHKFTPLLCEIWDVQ
T1 sequence (P19793 1-462 partner): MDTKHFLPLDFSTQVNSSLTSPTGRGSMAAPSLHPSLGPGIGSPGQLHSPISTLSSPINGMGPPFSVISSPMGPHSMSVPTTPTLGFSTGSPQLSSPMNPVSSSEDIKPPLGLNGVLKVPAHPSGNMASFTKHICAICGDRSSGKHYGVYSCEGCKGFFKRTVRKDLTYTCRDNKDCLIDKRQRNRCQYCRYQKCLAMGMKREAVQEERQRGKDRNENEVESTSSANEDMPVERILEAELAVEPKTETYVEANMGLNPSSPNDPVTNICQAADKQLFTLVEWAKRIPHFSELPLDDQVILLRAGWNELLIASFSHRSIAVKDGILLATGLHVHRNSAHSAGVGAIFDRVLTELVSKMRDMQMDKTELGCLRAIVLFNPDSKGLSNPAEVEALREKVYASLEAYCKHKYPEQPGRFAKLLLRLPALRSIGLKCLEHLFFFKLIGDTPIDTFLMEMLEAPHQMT
Procedure: To assess the ability of the novel bile acids from the invention to affect human FXR signaling, a luciferase reporter assay was established in HEK-293 embryonic kidney cells^39.
Human kidney cell line HeK-293 was obtained from American Type Culture Collection (ATCC CRL-1573, tested for Mycoplasma contamination every 6 months). These cells were chosen due to their high transfectability and low FXR expression which allows for a robust signal to noise ratio. These 293 cells were cultured in Dulbecco's modified Eagle's medium/F-12 (DMEM) supplemented with 10% (V/V heat-inactivated fetal calf serum (FBS) and 100 units/ml penicillin G and 100 μg/ml streptomycin. 10,000 cells were seeded per well in 96-well plates one day before transfection of plasmids. DNA was transiently transfected by Lipofectamine 2000 and Opti-MDM in fasting state. The ratio of plasmid used in per well were 50 ng of FXR response element (FXRE)/luciferase reporter plasmid, 10 ng of pCMV-3flag-FXR (human) plasmid, 10 ng of pCMV-RXR (human) plasmid, and 5 ng of Renilla luciferase reporter plasmid as internal standard for transfection efficiency. […] Cells were harvested 24 hrs later and lysed with passive lysis buffer (Promega). Luciferase activities were measured by the Dual-Luciferase Reporter (DLR™) Assay kit and read by Luminometer (Perkin Elmer). The final Luciferase activities were normalized by dividing the relative light units by Renilla luciferase activity. Statistical analyses were performed using Prism software. Each dosage was done in 12 replicates.

Compound	presence in portal and peripheral blood ([1]; mouse, in vivo)	deconjugation by the microbiota [2]	liver Cyp7a1 expression vs corn oil control (significance) ([3]; gavage, 24 hrs)	liver Cyp8b1 expression vs corn oil control (significance) ([3]; gavage, 24 hrs)	ileum Fgf15 signaling vs corn oil control (significance) ([3]; gavage, 72 hrs)	ileum Shp signaling vs corn oil control (significance) ([3]; gavage, 72 hrs)	liver Cyp7a1 expression vs corn oil control (significance) ([3]; gavage, 72 hrs)	liver Cyp8b1 expression vs corn oil control (significance) ([3]; gavage, 72 hrs)	other results
C[C@H](CCC(=O)NCC(=O)O)[C@H]1CC[C@H]2[C@@H]3[C@H](O)C[C@@H]4C[C@H](O)CC[C@]4(C)[C@H]3C[C@H](O)[C@]12C [GCA, glycocholic acid, reference compound]	present	deconjugation readily occurred							oxidation of the cholate core by microbial enzymes [2]: no concurrent oxidation
CC(C)c1onc(-c2c(Cl)cccc2Cl)c1COc1ccc(/C=C/c2cccc(C(=O)O)c2)c(Cl)c1 [GW4064, reference compound]									ileum Shp expression vs corn oil control (significance) ([3]; gavage, 24 hr): significance was also reached
CC(C)C[C@H](NC(=O)CC[C@@H](C)[C@H]1CC[C@H]2[C@@H]3[C@H](O)C[C@@H]4C[C@H](O)CC[C@]4(C)[C@H]3C[C@H](O)[C@]12C)C(=O)O [Leu-chol, leucocholic acid]	not found	not deconjugated	significantly reduced	significantly reduced	significantly increased	significantly increased	significantly reduced	significantly reduced	liver Shp expression vs corn oil control (significance) ([3]; gavage, 72 hrs): significantly elevated
C[C@H](CCC(=O)N[C@@H](Cc1ccccc1)C(=O)O)[C@H]1CC[C@H]2[C@@H]3[C@H](O)C[C@@H]4C[C@H](O)CC[C@]4(C)[C@H]3C[C@H](O)[C@]12C [Phe-chol, phenylalanocholic acid]	not found	not deconjugated							EC50 (human FXR): 4500 nM; human FXR agonism (human FXR): strong human FXR agonists
C[C@H](CCC(=O)NCCS(=O)(=O)O)[C@H]1CC[C@H]2[C@@H]3[C@H](O)C[C@@H]4C[C@H](O)CC[C@]4(C)[C@H]3C[C@H](O)[C@]12C [TCA, Taurocholic acid, reference compound]									presence in portal and peripheral blood ([1]; SPF (n=4) and GF (n=6) mice, endogenous): present
C[C@H](CCC(=O)N[C@@H](Cc1ccc(O)cc1)C(=O)O)[C@H]1CC[C@H]2[C@@H]3[C@H](O)C[C@@H]4C[C@H](O)CC[C@]4(C)[C@H]3C[C@H](O)[C@]12C [Tyr-chol, tyrosocholic acid]	not found	not deconjugated	significantly reduced	significantly reduced	significantly increased	significantly increased	significantly reduced	significantly reduced	EC50 (human FXR): 140 nM; human FXR agonism (human FXR): strong human FXR agonists; ileum Fgf15 expression vs corn oil control (significance) ([3]; gavage, 24 hr): significantly elevated; Shp expression in the liver ([3]; gavage, 24 hrs): did not change detectably; liver Cyp7a1 expression ([3]; gavage, 24 hrs): 9 % of control; liver Cyp8b1 expression ([3]; gavage, 24 hrs): 69 % of control; Shp expression in the liver, increase ([3]; gavage, 72 hrs): 2.3 fold; liver Shp expression vs corn oil control (significance) ([3]; gavage, 72 hrs): significantly elevated; liver Cyp7a1 expression ([3]; gavage, 72 hrs (4 gavages)): 8 % of control; liver Cyp8b1 expression ([3]; gavage, 72 hrs (4 gavages)): 2 % of control; Fgf15 expression in the intestine, increase ([3]; 24 hrs): 12.2 fold; Shp expression in the intestine, increase ([3]; 24 hrs): 13.3 fold; Fgf15 expression in the intestine, increase ([3]; 72 hrs (4 gavages)): 6.2 fold; Shp expression in the intestine, increase ([3]; 72 hrs (4 gavages)): 9.3 fold
C[C@H](CCC(=O)O)[C@H]1CC[C@H]2[C@@H]3[C@H](O)C[C@@H]4C[C@H](O)CC[C@]4(C)[C@H]3C[C@H](O)[C@]12C [cholic acid, reference compound]			significantly reduced	significantly reduced	significantly increased	significantly increased	significantly reduced	significantly reduced	ileum Shp expression vs corn oil control (significance) ([3]; gavage, 24 hr): significance was also reached
